Measured values as given in patent publication US9205132B2, “Method of lowering mortality” (CORTHERA, INC., priority 2008, dated 2015).
Marks after values point to notes of the source that are not given here.

Experiments:
[1] = system: patients with acute heart failure (AHF); assay: In-hospital short-term outcomes (worsening heart failure, length of stay, signs of heart failure, diuretic and nitroglycerin use, body weight), Pre-RELAX-AHF trial; assay type: in vivo, human; details: for Length of Hospital Stay: mean ± SD
Description: (§1) Study Procedures. The study was approved by the relevant ethics committees, institutional review hoards and regulatory authorities, and conducted under the International Conference on Harmonization Good Clinical Practice guidelines. All patients provided informed written consent prior to participation. […] The placebo used for the study was the same solution as the diluent used to prepare the 100 μg/kg/day dose. The randomization ratio was 3:2:2:2:2, respectively, Relaxin (Corthera, San Mateo, Calif.) was manufactured using recombinant techniques and was identical to the naturally-occurring peptide hormone. By protocol, the study drug infusion was to be terminated if the patient's SBP was reduced to <100 mmHg or by >40 mmHg compared to baseline in two successive measurements, 15 minutes apart. Investigators were not prohibited from utilizing any standard medication, thought necessary to treat patients enrolled in the study, including additional vasodilators, following a 4-hour washout period during which time IV vasodilators, IV pure inotropes and meals were withheld, hemodynamic, renal, and clinical responses to 48 hours of study drug infusion were assessed.
(§2) Study Endpoints. […] 4.) Length of initial hospital stay.

[2] = system: patients with acute heart failure (AHF); assay: Safety endpoints (adverse events, blood pressure, renal impairment, clinical laboratory), Pre-RELAX-AHF trial; assay type: in vivo, human
Description: as §1, §2

[3] = relaxin for 48 hours, AHF patients

Substance: Relaxin
- % of subjects at Day 5 with: JVP <6 cm ([1]; 10 mcg/kg/d IV 48 h): 72.5%
- % of subjects at Day 5 with: No edema ([1]; 10 mcg/kg/d IV 48 h): 55.0%
- % of subjects at Day 5 with: No rales ([1]; 10 mcg/kg/d IV 48 h): 65.0%
- Worsening HF through Day 5 (%) ([1]; 10 mcg/kg/d IV 48 h): 20.0%
- patients receiving intravenous nitroglycerin during the first 24 hours ([1]; 10 mcg/kg/d IV 48 h): 10.0%
- Length of Hospital Stay ([1]; 10 mcg/kg/d IV 48 h): 10.9 ± 8.5 days
- Median change in body weight from baseline to Day 14 [kg; median (Q1; Q3)] ([1]; 10 mcg/kg/d IV 48 h): -2.0 kg
- Median total IV diuretic dose from randomization to Day 5 [mg; median (Q1-Q3)] ([1]; 10 mcg/kg/d IV 48 h): 100 mg
- % of subjects at Day 5 with: JVP <6 cm ([1]; 30 mcg/kg/d IV 48 h): 78.6%
- % of subjects at Day 5 with: No edema ([1]; 30 mcg/kg/d IV 48 h): 64.3 † %
- % of subjects at Day 5 with: No rales ([1]; 30 mcg/kg/d IV 48 h): 76.2%
- Worsening HF through Day 5 (%) ([1]; 30 mcg/kg/d IV 48 h): 11.9%
- patients receiving intravenous nitroglycerin during the first 24 hours ([1]; 30 mcg/kg/d IV 48 h): 9.5%
- Length of Hospital Stay ([1]; 30 mcg/kg/d IV 48 h): 10.2 ± 6.1 days
- Median change in body weight from baseline to Day 14 [kg; median (Q1; Q3)] ([1]; 30 mcg/kg/d IV 48 h): -3.0 kg
- Median total IV diuretic dose from randomization to Day 5 [mg; median (Q1-Q3)] ([1]; 30 mcg/kg/d IV 48 h): 100 mg
- % of subjects at Day 5 with: JVP <6 cm ([1]; 100 mcg/kg/d IV 48 h): 73.0%
- % of subjects at Day 5 with: No edema ([1]; 100 mcg/kg/d IV 48 h): 51.4 * %
- % of subjects at Day 5 with: No rales ([1]; 100 mcg/kg/d IV 48 h): 70.3%
- Worsening HF through Day 5 (%) ([1]; 100 mcg/kg/d IV 48 h): 13.5%
- patients receiving intravenous nitroglycerin during the first 24 hours ([1]; 100 mcg/kg/d IV 48 h): 13.5
- Length of Hospital Stay ([1]; 100 mcg/kg/d IV 48 h): 11.1 ± 6.6 days
- Median change in body weight from baseline to Day 14 [kg; median (Q1; Q3)] ([1]; 100 mcg/kg/d IV 48 h): -2.5 kg
- Median total IV diuretic dose from randomization to Day 5 [mg; median (Q1-Q3)] ([1]; 100 mcg/kg/d IV 48 h): 90 + mg
- % of subjects at Day 5 with: JVP <6 cm ([1]; 250 mcg/kg/d IV 48 h): 76.6 + %
- % of subjects at Day 5 with: No edema ([1]; 250 mcg/kg/d IV 48 h): 61.2 † %
- % of subjects at Day 5 with: No rales ([1]; 250 mcg/kg/d IV 48 h): 71.4%
- Worsening HF through Day 5 (%) ([1]; 250 mcg/kg/d IV 48 h): 10.2%
- patients receiving intravenous nitroglycerin during the first 24 hours ([1]; 250 mcg/kg/d IV 48 h): 4.1%
- Length of Hospital Stay ([1]; 250 mcg/kg/d IV 48 h): 10.6 ± 6.6 days
- Median change in body weight from baseline to Day 14 [kg; median (Q1; Q3)] ([1]; 250 mcg/kg/d IV 48 h): -2.0 kg
- Median total IV diuretic dose from randomization to Day 5 [mg; median (Q1-Q3)] ([1]; 250 mcg/kg/d IV 48 h): 140 mg
- period over which the improvements lasted ([1]; relaxin administered for as little as 48 hours): 14 days
- reduction in excessive body weight due to fluid retention, average loss [1, 3]: about 1 kg
- shorter hospital stays [1, 3]: ≤ 2.5 days
- mean length of stay for the index hospitalization, shorter than for placebo ([1]; relaxin groups 10-250 mcg/kg/d vs placebo): 0.9 to 1.8 days
- Patients with any AE from Day 15 to Day 30, n (%) ([2]; 10 mcg/kg/d IV 48 h): 4 (10.0%) n (%)
- Patients with any SAEs to Day 30, n (%) ([2]; 10 mcg/kg/d IV 48 h): 7 (17.5%) n (%)
- Patients with any adverse events to Day 30, n (%) ([2]; 10 mcg/kg/d IV 48 h): 32 (80.0%) n (%)
- Protocol-specified study drug discontinuation due to blood pressure reduction ([2]; 10 mcg/kg/d IV 48 h): 20.0%
- Renal impairment: Patients with ≧0.3 mg/dL increase in creatinine at Day 5 ([2]; 10 mcg/kg/d IV 48 h): 3 (7.9%) n (%)
- Renal impairment: Patients with ≧0.3 mg/dL increase in creatinine at Day 5 and Day 14 ([2]; 10 mcg/kg/d IV 48 h): 3 (7.5%) n (%)
- Renal impairment: Patients with ≧25% increase in creatinine at Day 5 ([2]; 10 mcg/kg/d IV 48 h): 4 (10.0%) n (%)
- SAE to Day 30: Acute respiratory failure, n (%) ([2]; 10 mcg/kg/d IV 48 h): 0 n (%)
- SAE to Day 30: Bronchitis, n (%) ([2]; 10 mcg/kg/d IV 48 h): 0 n (%)
- SAE to Day 30: Cardiac failure, n (%) ([2]; 10 mcg/kg/d IV 48 h): 2 (5.0%) n (%)
- SAE to Day 30: Cerebrovascular accident, n (%) ([2]; 10 mcg/kg/d IV 48 h): 0 n (%)
- SAE to Day 30: Hypotension, n (%) ([2]; 10 mcg/kg/d IV 48 h): 0 n (%)
- SAE to Day 30: Noncardiac chest pain, n (%) ([2]; 10 mcg/kg/d IV 48 h): 2 (5.0%) n (%)
- SAE to Day 30: Pneumonia, n (%) ([2]; 10 mcg/kg/d IV 48 h): 0 n (%)
- SAE to Day 30: Renal failure, n (%) ([2]; 10 mcg/kg/d IV 48 h): 0 n (%)
- SAE to Day 30: Urinary retention, n (%) ([2]; 10 mcg/kg/d IV 48 h): 0 n (%)
- SAE to Day 30: Urinary tract infection, n (%) ([2]; 10 mcg/kg/d IV 48 h): 0 n (%)
- SAE to Day 30: Ventricular fibrillation, n (%) ([2]; 10 mcg/kg/d IV 48 h): 1 (2.5%) n (%)
- mean change in creatinine from baseline at Day 14 ([2]; 10 mcg/kg/d IV 48 h): 0.07 ± 0.24 mg/dL
- patients requiring treatment of blood pressure reduction ([2]; 10 mcg/kg/d IV 48 h): None of the patients
- proportion of patients at Day 14 with an increase in creatinine of 0.3 mg/dL or more ([2]; 10 mcg/kg/d IV 48 h): 19.4%
- change from baseline in mean hematocrit at 48 hours ([2]; 10 mcg/kg/d IV 48 h, described as transient decrease): 0.57%
- Patients with any AE from Day 15 to Day 30, n (%) ([2]; 30 mcg/kg/d IV 48 h): 5 (11.9%) n (%)
- Patients with any SAEs to Day 30, n (%) ([2]; 30 mcg/kg/d IV 48 h): 7 (16.7%) n (%)
- Patients with any adverse events to Day 30, n (%) ([2]; 30 mcg/kg/d IV 48 h): 25 (59.5%) n (%)
- Protocol-specified study drug discontinuation due to blood pressure reduction ([2]; 30 mcg/kg/d IV 48 h): 9.5%
- Renal impairment: Patients with ≧0.3 mg/dL increase in creatinine at Day 5 ([2]; 30 mcg/kg/d IV 48 h): 7 (18.9%) n (%)
- Renal impairment: Patients with ≧0.3 mg/dL increase in creatinine at Day 5 and Day 14 ([2]; 30 mcg/kg/d IV 48 h): 3 (7.3%) n (%)
- Renal impairment: Patients with ≧25% increase in creatinine at Day 5 ([2]; 30 mcg/kg/d IV 48 h): 9 (22.0%) n (%)
- SAE to Day 30: Acute respiratory failure, n (%) ([2]; 30 mcg/kg/d IV 48 h): 0 n (%)
- SAE to Day 30: Bronchitis, n (%) ([2]; 30 mcg/kg/d IV 48 h): 1 (2.4%) n (%)
- SAE to Day 30: Cardiac failure, n (%) ([2]; 30 mcg/kg/d IV 48 h): 1 (2.4%) n (%)
